Data as given in paper PMC6286156 (Cell Calcium, 2018).
Where a name gives a salt, the structure may show the parent alone.

What was measured:
[1] = system: lysosomal Ca^2+ content, U2OS cells; experiment: Counterscreen: GPN-evoked lysosomal Ca2+ release; assay type: cell-based, human; conditions: for activity at 30 µM: Homo sapiens, read-out: Counterscreen (human cells) Ca^2+ release (% GPN); for Effect on GPN-mobilizable Ca2+ and LysoTracker (LTR) staining (in words) / Counterscreen (human cells) Ca^2+ release (% GPN): drug 30 μM; for Counterscreen (human cells) Ca^2+ release (% GPN): GPN 300 μM, peak fluo-4 F/F0
[2] = system: specific ^32P-NAADP binding in sea urchin egg homogenates; experiment: 32P-NAADP radioligand binding in sea urchin egg homogenate; set-up: species or system Strongylocentrotus purpuratus; conditions: drug 30 μM, specific 32P-NAADP binding relative to vehicle
[3] = system: NAADP-evoked Ca^2+ release; assay type: biochemical, Strongylocentrotus purpuratus; conditions: for 2° Screen (sea urchin) Ca^2+ release log(IC50): printed as log(IC50), negative values, molar implied, NAADP 70 nM
[4] = system: NAADP-evoked Ca^2+ release; experiment: Primary screen of NAADP-evoked Ca2+ release in sea urchin egg homogenate; assay type: biochemical, Strongylocentrotus purpuratus; conditions: for 1° Screen (sea urchin) Ca^2+ release (% NAADP): peak NAADP-evoked Ca2+ release as % of control NAADP response: compound 25 μM, 6 min preincubation, NAADP 167 nM; for Effect on NAADP-evoked Ca2+ signal in primary screen (in words): 25 μM
[5] = system: lysosomal labelling (LysoTracker Red), U2OS cells; experiment: Counterscreen: LysoTracker Red; assay type: cell-based, human; conditions: for activity at 30 µM: Homo sapiens, read-out: Counterscreen (human cells) LTR signal (% control); for Counterscreen (human cells) LTR signal (% control): drug 30 μM, minimum LTR F/F0 before GPN
[6] = system: NAADP-evoked Ca^2+ signals; conditions: cited from earlier work
Ebola = conditions: mouse, in vivo; cited from earlier work

Compound	activity at 30 µM [1]	2° Screen (sea urchin) NAADP binding (% inhibition) [2]	2° Screen (sea urchin) Ca^2+ release log(IC50) [3]	1° Screen (sea urchin) Ca^2+ release (% NAADP): peak NAADP-evoked Ca2+ release as % of control NAADP response [4]	activity at 30 µM [5]	other results
CC(=O)SCC(Cc1ccccc1)C(=O)NCC(=O)OCc1ccccc1 (stereo not shown) [Racecadotril, racecadotril]	110 ± 4%	−8.3 ± 0.2%	−5.80 ± 0.03	11.5 ± 6.0%	92.8 ± 3%	Effect on GPN-mobilizable Ca2+ and LysoTracker (LTR) staining (in words) [1]: no effect; IC50 ([3]; read-out: IC50 for inhibition of NAADP-evoked Ca2+ release): 1.6 ± 0.1 µM
COc1ccc(CCCOC(Cn2ccnc2)c2ccc(OC)cc2)cc1 (stereo not shown) [SKF 96,365, SKF 96365 hydrochloride]	98.1 ± 6%	−5.3 ± 5.7%	−5.29 ± 0.06	6.3 ± 4.5%	98.5 ± 5%	Effect on GPN-mobilizable Ca2+ and LysoTracker (LTR) staining (in words) [1]: no effect
OCc1cc(C(O)CNCCCCCCOCCCCc2ccccc2)ccc1O (stereo not shown) [Salmeterol xinafolate, salmeterol xinafoate]	97.4 ± 5%	−2.3 ± 13.6%	−4.94 ± 0.04	18.7 ± 12%	97.3 ± 7%	–
CCN(CC)CCCCCCCCOC(=O)c1cc(OC)c(OC)c(OC)c1.Cl [TMB-8 hydrochloride]	–	−16.6 ± 10.3%	−5.12 ± 0.06	18.3 ± 3.2%	–	Counterscreen (human cells) Ca^2+ release (% GPN) [1]: 68.8 ± 5%; Counterscreen (human cells) LTR signal (% control) [5]: 71.8 ± 8%
CSc1ccc2c(c1)N(CCC1CCCCN1C)c1ccccc1S2 (stereo not shown) [Thioridazine hydrochloride, thioridazine hydrochloride]	20.5 ± 12%	–	–	–	26.2 ± 18%	–
CN1CCN(CCCN2c3ccccc3Sc3ccc(C(F)(F)F)cc32)CC1 [Trifluoperazine dihydrochloride, trifluoperazine dihydrochloride]	5.8 ± 11%	−13.7 ± 13.7%	−5.13 ± 0.10	19.7 ± 15%	15.2 ± 9%	–
CO/C1=C\C(C)=C\[C@@H](C)[C@@H](O)[C@@H](C)C/C(C)=C/C=C/[C@H](OC)[C@@H]([C@@H](C)[C@@H](O)[C@H](C)[C@@]2(O)C[C@@H](O)[C@H](C)[C@@H](C(C)C)O2)OC1=O [bafilomycin, bafilomycin A1]	–	–	–	–	–	Effect on GPN-mobilizable Ca2+ and LysoTracker (LTR) staining (in words) [1]: penetrant effects
COc1ccc([C@@H]2Sc3ccccc3N(CCN(C)C)C(=O)[C@@H]2OC(C)=O)cc1 [diltiazem]	–	–	–	–	–	Concentration acting as TPC pore blocker [6]: < 10 u M
O=C1C[C@@H](c2ccc(O)cc2)Oc2cc(O)cc(O)c21 [naringenin]	–	–	–	–	–	IC50 [6]: ~180 µM
COC(=O)C1=C(C)NC(C)=C(C(=O)OC)C1c1ccccc1[N+](=O)[O-] [nifedipine]	–	–	–	–	–	Concentration acting as TPC pore blocker [6]: < 10 u M
O=C1NC(=O)C(c2ccccc2)(c2ccccc2)N1 [phenytoin]	–	–	–	–	–	Effect on NAADP-evoked Ca2+ signal in primary screen (in words) [4]: potentiation
COc1ccc2cc1Oc1ccc(cc1)C[C@H]1c3cc(c(OC)cc3CCN1C)Oc1c(OC)c(OC)cc3c1[C@H](C2)N(C)CC3 [tetrandrine]	–	–	–	–	–	Concentration range acting as TPC pore blocker (in words) [6]: sub-micromolar range; Survival (Ebola): improved survival
C/C=C(/C)C(=O)O[C@H]1C(C)=C2[C@H]([C@@H]1OC(=O)CCCCCCC)[C@@](C)(OC(C)=O)C[C@H](OC(=O)CCC)[C@@]1(O)[C@H]2OC(=O)[C@@]1(C)O [thapsigargin]	–	–	–	–	–	Effect on NAADP-evoked Ca2+ signal in primary screen (in words) [4]: did not abrogate NAADP responsiveness
ST-148	–	0.2 ± 4.3%	−4.80 ± 0.08	16.7 ± 3.5%	–	Counterscreen (human cells) Ca^2+ release (% GPN) [1]: 66.6 ± 5%; Counterscreen (human cells) LTR signal (% control) [5]: 69.8 ± 13%
